In PubChem BioAssay AID256 (DTP/NCI, 2004) one finds T/C data, which are given here for 15 compounds.

The assay relates to CD2F1 mice, L1210 leukemia ip, survival T/C. The experiment in a line: NCI In Vivo Anticancer Drug Screen. Data for tumor model L1210 Leukemia (intraperitoneal) in CD2F1 (CDF1) mice. To be noted: higher = longer survival. A digest of the protocol:
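Ratio T/C, where T is the treated-group value and C the vehicle-dosed control value, from mice implanted with a transplantable tumor.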

Setting [1] is: endpoint: mean survival time, dose: 100.0 mg/kg/injection, schedule: Q01DX001 (ip), vehicle: saline.
Setting [2] is: endpoint: mean survival time, dose: 200.0 mg/kg/injection, schedule: Q01DX001 (ip), vehicle: saline.
[3] abbreviates: endpoint: mean survival time, dose: 400.0 mg/kg/injection, schedule: Q01DX001 (ip), vehicle: saline.
Setting [4] is: endpoint: mean survival time, dose: 100.0 mg/kg/injection, schedule: Q01DX009 (ip), vehicle: saline with Tween-80.
The mark [5] stands for this setting: endpoint: mean survival time, dose: 100.0 mg/kg/injection, schedule: Q04DX003 (ip), vehicle: saline with Tween-80.
[6] abbreviates: endpoint: mean survival time, dose: 200.0 mg/kg/injection, schedule: Q04DX003 (ip), vehicle: saline with Tween-80.
The mark [7] stands for this setting: endpoint: mean survival time, dose: 400.0 mg/kg/injection, schedule: Q04DX003 (ip), vehicle: saline with Tween-80.

Where “and” joins values, the source holds several entries; their conditions need not be identical. Equal values may be shown once. Inconclusive results and toxic doses are left out.

For `CC(Sc1ccccc1)C(=O)O` (configuration not stated), the T/C by setting is: under setting [1], 98 % of control; under setting [2], 102 % of control; under setting [3], 98 % of control.
As for `CN(C)C(=O)Nc1ccc(Cl)cc1`, the T/C is 100 % of control (endpoint: median survival time, dose: 12.5 mg/kg/injection, schedule: Q01DX009 (ip), vehicle: saline); 100 % of control (endpoint: median survival time, dose: 25.0 mg/kg/injection, schedule: Q01DX009 (ip), vehicle: saline); 103 % of control (endpoint: median survival time, dose: 50.0 mg/kg/injection, schedule: Q01DX009 (ip), vehicle: saline); 100 % of control (endpoint: median survival time, dose: 100.0 mg/kg/injection, schedule: Q01DX009 (ip), vehicle: saline); 101 % of control (endpoint: median survival time, dose: 200.0 mg/kg/injection, schedule: Q01DX009 (ip), vehicle: saline); 100 % of control (endpoint: median survival time, dose: 400.0 mg/kg/injection, schedule: Q01DX009 (ip), vehicle: saline).
Regarding `Nc1nc2ncn(O)c2c(=O)[nH]1`, the T/C is, setting by setting: (endpoint: median survival time, dose: 3.12 mg/kg/injection, schedule: Q01DX009 (ip), vehicle: other) 176 % of control; (endpoint: median survival time, dose: 6.25 mg/kg/injection, schedule: Q01DX009 (ip), vehicle: other) 195 % of control; (endpoint: median survival time, dose: 6.25 mg/kg/injection, schedule: Q01DX009 (ip), vehicle: water) 168 % of control and 172 % of control; (endpoint: median survival time, dose: 12.5 mg/kg/injection, schedule: Q01DX009 (ip), vehicle: other) 162 % of control; (endpoint: median survival time, dose: 12.5 mg/kg/injection, schedule: Q01DX009 (ip), vehicle: water) 168 % of control and 234 % of control; (endpoint: median survival time, dose: 25.0 mg/kg/injection, schedule: Q01DX009 (ip), vehicle: other) 101 % of control. Moreover, the T/C (endpoint: median survival time, dose: 25.0 mg/kg/injection, schedule: Q01DX009 (ip), vehicle: water) is 164 % of control.
`NC(=O)c1ncn(C2OC(COP(=O)(O)O)C(O)C2O)n1` (configuration not stated): the T/C by setting is: (endpoint: mean survival time, dose: 12.5 mg/kg/injection, schedule: Q01DX005 (ip), vehicle: water) 98 % of control; (endpoint: mean survival time, dose: 25.0 mg/kg/injection, schedule: Q01DX005 (ip), vehicle: water) 101 % of control; (endpoint: mean survival time, dose: 50.0 mg/kg/injection, schedule: Q01DX005 (ip), vehicle: water) 102 % of control; (endpoint: mean survival time, dose: 100.0 mg/kg/injection, schedule: Q01DX005 (ip), vehicle: water) 98 % of control; (endpoint: mean survival time, dose: 200.0 mg/kg/injection, schedule: Q01DX005 (ip), vehicle: water) 102 % of control.
On to `CC(=O)Nc1cccc(C)n1`, for which the T/C by setting is: (endpoint: mean survival time, dose: 75.0 mg/kg/injection, schedule: Q01DX001 (ip), vehicle: saline) 98 % of control; (endpoint: mean survival time, dose: 150.0 mg/kg/injection, schedule: Q01DX001 (ip), vehicle: saline) 98 % of control.
With `c1ccc2c([Si](O[Si](c3cccc4ccccc34)C3CCCCC3)C3CCCCC3)cccc2c1`, the T/C runs as follows: under setting [4], 100 % of control; under setting [5], 93 % of control; (endpoint: mean survival time, dose: 200.0 mg/kg/injection, schedule: Q01DX009 (ip), vehicle: saline with Tween-80) 91 % of control; under setting [6], 91 % of control; (endpoint: mean survival time, dose: 400.0 mg/kg/injection, schedule: Q01DX009 (ip), vehicle: saline with Tween-80) 88 % of control.
Turning to `O=C(/C=C/c1ccc(Cl)cc1)c1ccc(Cl)cc1`, the T/C was 98 % of control under setting [5], 90 % of control under setting [6] and 93 % of control under setting [7].
`CCC(=O)OCc1cc2ccccc2c(-c2c(O)c(CN3CCOCC3)cc3ccccc23)c1O`: the T/C by setting is: (endpoint: mean survival time, dose: 100.0 mg/kg/injection, schedule: Q04DX002 (ip), vehicle: saline with Tween-80) 95 % of control; (endpoint: mean survival time, dose: 200.0 mg/kg/injection, schedule: Q04DX002 (ip), vehicle: saline with Tween-80) 91 % of control; (endpoint: mean survival time, dose: 400.0 mg/kg/injection, schedule: Q04DX002 (ip), vehicle: saline with Tween-80) 91 % of control.
For `CCOC(=O)c1cc(C)[nH]c(=O)c1C#N`, the T/C (endpoint: mean survival time, dose: 25.0 mg/kg/injection, schedule: Q01DX009 (ip), vehicle: saline with Tween-80) is 93 % of control; the T/C (endpoint: mean survival time, dose: 25.0 mg/kg/injection, schedule: Q04DX003 (ip), vehicle: saline with Tween-80) was 102 % of control; the T/C (endpoint: mean survival time, dose: 50.0 mg/kg/injection, schedule: Q01DX009 (ip), vehicle: saline with Tween-80) is 96 % of control; the T/C (endpoint: mean survival time, dose: 50.0 mg/kg/injection, schedule: Q04DX003 (ip), vehicle: saline with Tween-80) was 102 % of control; the T/C under setting [4] is 93 % of control; the T/C under setting [5] is 98 % of control.
Consider `CC1OC(OCc2ccc(-c3ccccc3)cc2)CC(N)C1O` (configuration not stated), for which the T/C (endpoint: mean survival time, dose: 0.78 mg/kg/injection, schedule: Q01DX001 (ip), vehicle: water) was 94 % of control; the T/C (endpoint: mean survival time, dose: 1.56 mg/kg/injection, schedule: Q01DX001 (ip), vehicle: water) is 97 % of control; the T/C (endpoint: mean survival time, dose: 3.13 mg/kg/injection, schedule: Q01DX001 (ip), vehicle: water) is 95 % of control; the T/C (endpoint: mean survival time, dose: 6.25 mg/kg/injection, schedule: Q01DX001 (ip), vehicle: water) was 106 % of control; the T/C (endpoint: mean survival time, dose: 12.5 mg/kg/injection, schedule: Q01DX001 (ip), vehicle: water) was 97 % of control; the T/C (endpoint: mean survival time, dose: 25.0 mg/kg/injection, schedule: Q01DX001 (ip), vehicle: water) was 105 % of control. Further, the T/C is 106 % of control (endpoint: median survival time, dose: 1.56 mg/kg/injection, schedule: Q04DX003 (ip), vehicle: water); 98 % of control (endpoint: median survival time, dose: 3.13 mg/kg/injection, schedule: Q04DX003 (ip), vehicle: water); 109 % of control (endpoint: median survival time, dose: 6.25 mg/kg/injection, schedule: Q04DX003 (ip), vehicle: water); 100 % of control (endpoint: median survival time, dose: 12.5 mg/kg/injection, schedule: Q04DX003 (ip), vehicle: water); 106 % of control (endpoint: median survival time, dose: 25.0 mg/kg/injection, schedule: Q04DX003 (ip), vehicle: water).
Consider `C=C1C(O)C2(O)OCC34C(CC5C(C)=CC(=O)C(O)C5(C)C23)OC(=O)C(OC(=O)C/C=C/CCCCCCCC)C14` (configuration not stated), for which the T/C (endpoint: median survival time, dose: 2.0 mg/kg/injection, schedule: Q01DX005 (ip), vehicle: saline + alcohol) was 113 % of control; the T/C (endpoint: median survival time, dose: 4.0 mg/kg/injection, schedule: Q01DX005 (ip), vehicle: saline + alcohol) was 119 % of control; the T/C (endpoint: median survival time, dose: 8.0 mg/kg/injection, schedule: Q01DX005 (ip), vehicle: saline + alcohol) was 119 % of control and 124 % of control.
As to `O=S(=O)(O)C(S(=O)(=O)O)S(=O)(=O)O`, the T/C is, setting by setting: under setting [5], 96 % of control; under setting [6], 97 % of control; under setting [7], 93 % of control.
In the case of `CCCCN(CCCC)C(=O)Nc1ccccc1`, the T/C reads like this: under setting [1], 100 % of control; under setting [2], 100 % of control; under setting [3], 98 % of control.
For the compound `N#CCc1ccccc1-c1ccccc1CC#N`, the T/C (endpoint: mean survival time, dose: 5.0 mg/kg/injection, schedule: Q01DX001 (ip), vehicle: other) is 106 % of control; the T/C (endpoint: mean survival time, dose: 10.0 mg/kg/injection, schedule: Q01DX001 (ip), vehicle: other) was 100 % of control; the T/C (endpoint: mean survival time, dose: 20.0 mg/kg/injection, schedule: Q01DX001 (ip), vehicle: other) is 96 % of control; the T/C (endpoint: mean survival time, dose: 40.0 mg/kg/injection, schedule: Q01DX001 (ip), vehicle: other) is 104 % of control.
As to `CCOC(=O)Nc1cc2c(c(N)n1)N=C(CCc1ccccc1)CN2`, the T/C is 107 % of control (endpoint: mean survival time, dose: 25.0 mg/kg/injection, schedule: Q01DX001 (ip), vehicle: Klucel (hydroxypropylcellulose) (HPC)); 114 % of control (endpoint: mean survival time, dose: 50.0 mg/kg/injection, schedule: Q01DX001 (ip), vehicle: Klucel (hydroxypropylcellulose) (HPC)); 116 % of control (endpoint: mean survival time, dose: 200.0 mg/kg/injection, schedule: Q01DX001 (ip), vehicle: Klucel (hydroxypropylcellulose) (HPC)).
